From patent US20150105252A1, “SUBSTITUTED PYRAZOLES AS HERBICIDES” (E I DU PONT DE NEMOURS AND COMPANY, priority 2013, published 2015)

Assays:
Experiment in all cases: Test F preemergence
pigweed, palmer = assay type: in vivo, Amaranthus palmeri
Description: (§1) Seeds of plant species selected from corn (Zea mays), soybean (Glycine max), velvetleaf (Abutilon theophrasti), lambsquarters (Chenopodium album), wild poinsettia (Euphorbia heterophylla), pigweed, palmer (palmer pigweed, Amaranthus palmeri), common waterhemp (Amaranthus rudis), surinam grass (Brachiaria decumbens), large crabgrass (Digitaria sanguinalis), crabgrass, Brazil (Brazilian crabgrass, Digitaria horizontalis), fall panicum (Panicum dichotomiflorum), giant foxtail (Setaria faberii), green foxtail (Setaria viridis), goosegrass (Eleusine indica), johnsongrass (Sorghum halepense), common ragweed (Ambrosia elation), barnyardgrass (Echinochloa crus-galli), southern sandbur (Cenchrus echinatus), arrowleaf sida (Sida rhombifolia), Italian ryegrass (Lolium multiflorum), dayflower, VA (Virginia (VA) dayflower, Commelina virginica), field bindweed (Convolvulus arvensis), cocklebur (common cocklebur, Xanthium strumarium), morningglory (Ipomoea coccinea), nightshade (eastern black nightshade, Solanum ptycanthum), kochia (Kochia scoparia), yellow nutsedge (Cyperus esculentus), and hairy beggarticks (Bidens pilosa), were planted into a silt loam soil and treated preemergence with test chemicals formulated in a non-phytotoxic solvent mixture which included a surfactant.
(§2) At the same time, plants from these crop and weed species and also horseweed (Canada horseweed, Conyza canadensis), smartweed (ladysthumb smartweed, Polygonum persicaria), waterhemp_RES1, (ALS & Triazine resistant common waterhemp, Amaranthus rudis), and waterhemp_RES2, (ALS & HPPD resistant common waterhemp, Amaranthus rudis) were treated with postemergence applications of test chemicals formulated in the same manner. Plants ranged in height from 2 to 18 cm for postemergence treatments (1- to 4-leaf stage). Treated plants and controls were maintained in a greenhouse for 14 to 21 days, after which time all species were compared to controls and visually evaluated. Plant response ratings, summarized in Table F, are based on a scale of 0 to 100 where 0 is no effect and 100 is complete control. A dash (-) response means no test result.

goosegrass = assay type: in vivo, Eleusine indica
Description: as §1, §2

morningglory = assay type: in vivo, Ipomoea coccinea
Description: as §1, §2

nightshade = assay type: in vivo, Solanum ptycanthum
Description: as §1, §2

[1] = Preemergence, 62 g ai/ha, scale 0 to 100
[2] = Preemergence, 125 g ai/ha, scale 0 to 100
[3] = preemergence, 8 g ai/ha, scale 0 to 100, 100 is complete control
[4] = preemergence, 16 g ai/ha, scale 0 to 100, 100 is complete control
[5] = Preemergence, 16 g ai/ha, scale 0 to 100
[6] = Preemergence, 31 g ai/ha, scale 0 to 100

SMILES | Plant response rating, Pigweed, Palmer (pigweed, palmer; [1]) | Plant response rating, Pigweed, Palmer (pigweed, palmer; [2]) | Plant response rating, Pigweed, Palmer (pigweed, palmer; [3]) | Plant response rating, Pigweed, Palmer (pigweed, palmer; [4]) | Plant response rating, Goosegrass (goosegrass; [1]) | Plant response rating, Goosegrass (goosegrass; [2]) | Plant response rating, Goosegrass (goosegrass; [3]) | Plant response rating, Goosegrass (goosegrass; [4]) | Plant response rating, Morningglory (morningglory; [5]) | Plant response rating, Morningglory (morningglory; [1]) | Plant response rating, Morningglory (morningglory; [2]) | Plant response rating, Morningglory (morningglory; [3]) | Plant response rating, Morningglory (morningglory; [4]) | Plant response rating, Nightshade (nightshade; [5]) | Plant response rating, Nightshade (nightshade; [1]) | Plant response rating, Nightshade (nightshade; [2]) | Plant response rating, Nightshade (nightshade; [3]) | Plant response rating, Nightshade (nightshade; [4]) | also measured
Cc1cc(C(=O)NC(C)C)nn1Cc1ccnc(C(F)(F)F)c1 [Compound 197] | 95 | 90 | 10 | 35 | 5 | 70 | 0 | 0 | 20 | 30 | 60 | 0 | 10 | 20 | 30 | 70 | 0 | 10 | –
CCNC(=O)c1cc(CC)n(Cc2ccnc(C(F)(F)F)c2)n1 [Compound 196] | 100 | 100 | 0 | 0 | 70 | 95 | 0 | 0 | 35 | 70 | 80 | 5 | 10 | 50 | 75 | 95 | 0 | 35 | –
CCOc1cc(C(=O)NCC(F)(F)F)nn1Cc1ccnc(C(F)(F)F)c1 [Compound 104] | 50 | 100 | 0 | 0 | 75 | 100 | 5 | 25 | – | 80 | 100 | 0 | 0 | – | 100 | 100 | 0 | 65 | Plant response rating, Pigweed, Palmer (pigweed, palmer; [6]): 50; Plant response rating, Goosegrass (goosegrass; [6]): 30; Plant response rating, Morningglory (morningglory; [6]): 70; Plant response rating, Nightshade (nightshade; [6]): 100
